# Experimental data published in patent US20130065818A1, “Arylamide Compounds And Compositions And Uses Thereof” (POLYMEDIX, priority 2006, published 2013).
# Several values for one entry are separate records, joined by “and”; a condition that tells them apart may be missing. Equal entries are not always repeated. Entries after “also recorded” stand apart in the source; their conditions may differ.
# What was measured:
# [1] = Draize ocular toxicity scoring, NZW rabbit ocular toxicity model; type: in vivo; set-up: key to MMTS / Score (Draize total): Draize total score of cornea, iris and conjunctivae; maximum 110; III. B. Chemosis / I. A. Cornea opacity / I. B. Area of cornea involved / II. A. Iris / III. A. Conjunctivae redness / III. C. Discharge: scale not given here
# Procedure: The ocular toxicity of several concentrations of Oligomer 2, using the Draize ocular toxicity scoring system, in the NZW rabbit ocular toxicity model was carried out.
# Rabbits were treated in both eyes with (37 μl) topical drops every 30 minutes for 3 hours (7 total doses). One rabbit was treated with Tris-Buffered Saline and served as a negative control. Rabbits were evaluated in a masked fashion for ocular toxicity by an ophthalmologist with specialty training in corneal and external disease. Ocular toxicity was evaluated using the Draize scoring system after treatment on Day 0 and on Day 3 post treatment for any delayed toxicity. (Draize et al., J. Pharmacol. Exp. Ther., 1944, 82, 377-390).
# A brief summary of the Draize scoring system for ocular lesions is provided below
# Total Maximum Score: 110 represents the sum of all scores obtained for the cornea, iris and conjunctivae.
# The ocular toxicity of several formulations of Oligomer 4 with and without farnesol, using the Draize ocular toxicity scoring system, in the NZW rabbit ocular toxicity model was carried out.
# Rabbits were treated in both eyes with (37 μl) topical drops every 30 minutes for 3 hours (7 total doses). One rabbit was treated with Tris-Buffered Saline and served as a negative control. Rabbits were evaluated in a masked fashion for ocular toxicity by an ophthalmologist with specialty training in corneal and external disease 30 minutes after the final dose. Ocular toxicity was evaluated using the Draize scoring system (see above) after treatment on Day 0 and on Day 2 post treatment for any delayed toxicity.
# [2] = tested on: fluoroquinolone-resistant, methicillin-resistant Staphylococcus aureus (K950); assay: NZW rabbit keratitis model, corneal colony counts; type: in vivo
# Procedure, shortened: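 NZW rabbit corneas, with or without intact epithelia, infected with fluoroquinolone-resistant MRSA; right eyes left untreated. Topical treatments included 1%, 0.5% or 0.25% Oligomer 2 (0.25% ± 0.005% benzalkonium chloride), 0.25% Oligomer 4 ± 200 μM Farnesol, 200 μM Farnesol alone, and 5% vancomycin; read-out corneal colony counts.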
# [3] = tested on: K. pneumoniae Lab Strain KP10; assay: MIC, laboratory strains (Example 8); type: cell-based
# P. aeruginosa ATCC 10145 = assay: MIC, laboratory strains (Example 8); type: cell-based
# [4] = 0.25% Oligomer 4 in TBS, Day 0, per eye
# [5] = 0.25% Oligomer 4 in TBS, Day 2, per eye
# [6] = 0.25% in Tris Buffered Saline (TBS), Day 0
# [7] = 0.25% in Tris Buffered Saline (TBS), Day 2
# [8] = 0.5% Oligomer 4 in TBS, Day 0, per eye
# [9] = 0.5% Oligomer 4 in TBS, Day 2, per eye
# [10] = 0.5% in Tris Buffered Saline (TBS), Day 0
# [11] = 0.5% in Tris Buffered Saline (TBS), Day 2
structure (smiles),measurement,setting,value
N=C(N)NCCCCC(=O)Nc1cc(C(F)(F)F)cc(NC(=O)c2cc(C(=O)Nc3cc(C(F)(F)F)cc(NC(=O)CCCCNC(=N)N)c3O[C@@H]3CCNC3)ncn2)c1O[C@@H]1CCNC1 [Oligomer 4],Classification of eye irritation,"[1]; 0.25% Oligomer 4 in TBS, Day 0",Practically Non-Irritating
same,MMTS,"[1]; 0.25% Oligomer 4 in TBS, Day 0",1.5
same,MMTS classification symbol,"[1]; 0.25% Oligomer 4 in TBS, Day 0",PN (0.6-2.5 Practically Non-Irritating)
same,I. A. Cornea opacity,[1]; [4],0
same,I. B. Area of cornea involved,[1]; [4],0
same,"I. Tot (cornea, A × B × 5)",[1]; [4],0
same,II. A. Iris,[1]; [4],0
same,"II. Tot (iris, A × 5)",[1]; [4],0
same,III. A. Conjunctivae redness,[1]; [4],0
same,III. B. Chemosis,[1]; [4],0
same,Classification of eye irritation,"[1]; 0.25% Oligomer 4 in TBS, Day 2",Non-Irritating
same,MMTS,"[1]; 0.25% Oligomer 4 in TBS, Day 2",0.5
same,MMTS classification symbol,"[1]; 0.25% Oligomer 4 in TBS, Day 2",N (0.0-0.5 Non-Irritating)
same,I. A. Cornea opacity,[1]; [5],0
same,I. B. Area of cornea involved,[1]; [5],0
same,"I. Tot (cornea, A × B × 5)",[1]; [5],0
same,II. A. Iris,[1]; [5],0
same,"II. Tot (iris, A × 5)",[1]; [5],0
same,III. A. Conjunctivae redness,[1]; [5],0
same,III. B. Chemosis,[1]; [5],0
same,MMTS,[1]; [6],1.5
same,MMTS classification,[1]; [6],PN (0.6-2.5 Practically Non-Irritating)
same,MMTS,[1]; [7],0.5
same,MMTS classification,[1]; [7],N (0.0-0.5 Non-Irritating)
same,Classification of eye irritation,"[1]; 0.5% Oligomer 4 in TBS, Day 0",Mildly Irritating
same,MMTS,"[1]; 0.5% Oligomer 4 in TBS, Day 0",6.5
same,MMTS classification symbol,"[1]; 0.5% Oligomer 4 in TBS, Day 0",M1 (2.6-15.0 Minimally Irritating)
same,I. A. Cornea opacity,[1]; [8],0
same,I. B. Area of cornea involved,[1]; [8],0
same,"I. Tot (cornea, A × B × 5)",[1]; [8],0
same,II. A. Iris,[1]; [8],0
same,"II. Tot (iris, A × 5)",[1]; [8],0
same,III. C. Discharge,[1]; [8],2 and 1
same,MMTS,"[1]; 0.5% Oligomer 4 in TBS, Day 2",1.0
same,MMTS classification symbol,"[1]; 0.5% Oligomer 4 in TBS, Day 2",N (0.0-0.5 Non-Irritating)
same,I. A. Cornea opacity,[1]; [9],0
same,I. B. Area of cornea involved,[1]; [9],0
same,"I. Tot (cornea, A × B × 5)",[1]; [9],0
same,II. A. Iris,[1]; [9],0
same,"II. Tot (iris, A × 5)",[1]; [9],0
same,III. A. Conjunctivae redness,[1]; [9],0
same,III. B. Chemosis,[1]; [9],0
same,MMTS,[1]; [10],6.5
same,MMTS classification,[1]; [10],M1 (2.6-15.0 Minimally Irritating)
same,MMTS,[1]; [11],1.0
same,MMTS classification,[1]; [11],N (0.0-0.5 Non-Irritating)
same,Dose dependence of ocular toxicity,"[1]; Example 7, 7 topical instillations, every 30 minutes for 3 hours",dose dependent ocular toxicity
same,Effect of addition of 100 μM Farnesol in 1% Propylene Glycol on ocular toxicity,"[1]; rabbit, in vivo",increased the toxicity
same,Effect of addition of Farnesol on penetration and antibacterial efficacy of Oligomer 4,[2]; Ker-4,did nothing to promote penetration; also recorded: a trend toward antagonism
same,Reduction of colony counts compared with the Onset of Therapy Control,"[2]; Ker-4, corneal epithelium removed",effective
same,Effect of addition of Farnesol on penetration of 0.25% Oligomer 4 through the intact corneal epithelium,[2]; in vivo,did not appear aid in the penetration
same,MIC,[3],0.78 µg/mL
same,MIC,P. aeruginosa ATCC 10145,12.5 µg/mL
